Here are results for four compounds from patent US8858994B2, “Pharmaceutical formulation comprising ezetimibe” (Ratiopharm GmbH, priority 2007, dated 2014).

Molecules are shown by their SMILES.

What all share (assay type): physicochemical
Data set [1] in a line: Particle size determination according to Dry Powder Method (Malvern Master sizer S). The note with it: ezetimibe used in Examples 1, 3 and 4, in µm (unit assumed). An excerpt: a) Particle Size Determination According to “Dry Powder Method”.
Typical Instrumental Conditions:
Pour the small volume sample in Drypowder Sampler unit. Set the feed rate & air pressure with the help of adjustable knob. And start the measurement until to get the obscuration between 15 and 30. Pass the laser beam through the sample cell to measure the particle size distribution and record the data into a histogram then report the results at 10%, 50% and 90% level of particles size distribution.
Note: Ensure the Laser power should be more than 60%.

A short description of data set [2]: Particle size determination according to Wet Method (Malvern laser diffraction). The conditions noted are these: dioctyl sulfosuccinate sodium salt in n-hexane. An excerpt:
b) Particle Size Determination According to “Wet Method”. Ezetimibe Samples PSD Measurement by Malvern Laser Diffraction
A Malvern Laser Diffraction instrument was used to characterize the particle size distribution of ezetimibe. A Mastersizer S model equipped with a small cell dispersion unit MSI with a digital dispersion unit controller was used. The measurement was done using range lens 300RF (working range […]), beam length: 2.40 mm and presentation 3NHE. In this case, a solution of dioctyl sulfosuccinate sodium salt in n-hexane was used as a dilution medium. The measurement was started after 1 minute of recirculation after suspension addition into measurement cell at speed rate 2000+−10 rpm. The suspension was prepared of ˜0.1 g sample in solution 0.065% dioctyl sulfosuccinate sodium salt in n-hexane by vortex for 10 seconds and by sonication for 30 seconds. According to the accepted rules of Good Manufacture Procedures, the sample of ezetimibe is preferably measured after a successful blank measurement (% obscuration NMT 0.1%) is performed.

A short description of data set [3]: Determination of specific surface area (BET, single point). The note with it: BET, single point; Sample no. 1 of example 5b). The procedure:
The specific surface area is determined by […] using BET calculation.
Specific surface area is measured by using the following Parameters: • Instrument: Pulse Chemisorbs 2700 (micromeritics) • Degassing: With out degassing • Sensitivity: No • Calculations: BET • Type: Single point system • Points: One • Sample cell: 6 cm^3 Procedure: • Sample no. 1 of example 5b) of known weight is taken in the sample transparent U shape glass tube. The sample is […] to remove all atmosphere at liquid nitrogen temperature (−196° C.). This is achieved by passing nitrogen through the sample tube, which is placed in a liquid nitrogen bath (−196° C.). The value divided by the weight of the catalyst/sample taken in the tube gives the surface area of the sample. BET Surface Area: • Surface area determination is an important factor in determining the catalyst performance, a method of assessing the efficiency of the catalyst support and promoter. […]
Is a straight line (in the range of P/P0:0.05-0.3) with slope (C−1)/(VmC) and intercept 1/VmC. By knowing these intercept and slope values calculated and further specific surface area can be calculated as follows Specific surface area (m^2/g)={[Vm×NA]/[22414×Wt]}×Am • Where, • Vm=monolayer volume in ml at STP • NA=Avogadro number • Wt=Weight of the catalyst • Am=mean cross sectional area of adsorbate molecule ([…] for N2

In the case of `O=C1[C@H](CC[C@H](O)c2ccc(F)cc2)[C@@H](c2ccc(O)cc2)N1c1ccc(F)cc1` [Sample 3 of Example 5a], in data set [1], the “d(0.1)” value was found to be 3.349, the “d(0.5)” value was found to be 6.356 and the “d(0.9)” value is 11.429.
Take `O=C1[C@H](CC[C@H](O)c2ccc(F)cc2)[C@@H](c2ccc(O)cc2)N1c1ccc(F)cc1` [Sample 4]: in data set [2], the “d(0.1)” value was 2.02 μm, the “d(0.5)” value is on record as 4.11 μm and the “d(0.9)” value was found to be 8.21 μm.
In the case of `O=C1[C@H](CC[C@H](O)c2ccc(F)cc2)[C@@H](c2ccc(O)cc2)N1c1ccc(F)cc1` [Sample 5], in data set [2], the “d(0.1)” value was 2.70 μm, the “d(0.5)” value was 6.76 μm and the “d(0.9)” value stood at 16.47 μm.
The compound `O=C1[C@H](CC[C@H](O)c2ccc(F)cc2)[C@@H](c2ccc(O)cc2)N1c1ccc(F)cc1` [ezetimibe, 1-(4-fluorophenyl)-3(R)-[3-(4-fluorophenyl)-3(S)-hydroxypropyl]-4(S)-(4-hydroxyphenyl)-2-azetidinone] registered a Specific surface area in data set [3] of 1.24 m^2/gram.
